In patent publication US9844546B2, “Antibody against human HIF hydroxylase” (OXFORD UNIVERSITY INNOVATION LIMITED, priority 2001, dated 2017):

Legend:
U2OS cells = U2OS cells stably transfected with doxycycline-inducible NODD or CODD; format: cell-based, human
Description: To explore further the therapeutic potential of NODD and CODD polypeptides to activate endogenous HIF we stably transfected U2OS cells with doxycycline-inducible NODD (doxNODD) and CODD constructs (doxCODD) encoding identical sequences to those used for transient transfections.
Cells stably transfected with NODD or CODD controlled by the tetracycline-inducible system were exposed to doxycycline. Cell extracts were prepared 0, 16, 24 and 48 hours after exposure to doxycycline. The extracts of doxNODD (HIF-1α aa343-417), doxCODD (HIF-1α aa549-82) and control cells (empty vector) were then immunoblotted for HIF-1α protein. Increased HIF-1α signals were detected from 16-48 hours following doxycycline administration in doxNODD and doxCODD cells but not in empty vector cells. Levels of HIF-1α induced by hypoxia were also measured for comparison. The endogenous HIF-1α induction was doxycycline dose (0.2-3.2 μg/ml) and time dependent, peaking after 48 hours. Maximal levels were about 20% and about 70% of HIF-1α levels seen following hypoxic or DFO treatment of the doxNODD and doxCODD cells respectively. […]
Stably transfected cell lines were generated by transfecting U2OS cells bearing the reverse tetracycline responsive transactivator ^34 and the tetKRAB silencer construct ^36 with pUHD/HIF plasmids. Following selection in G418 (1 mg/ml) individual colonies were picked. DoxNODD (F21) and doxCODD (myc19) clones expressed pUHD/HIF-1aa343-417/3NLS/c-myc and pUHD/HIF-1α aa549-82/3NLS/c-myc respectively. […]
Cell extracts were prepared in buffer (8M urea, 10% glycerol, 1% SDS, 5 mM DTT, 10 mM Tris/pH 6.8), separated by SDS-PAGE and transferred to Immobilon-P membrane (Millipore). Primary antibodies against HIF-1α, c-myc tag and HA tag were from Transduction Laboratories, Innogenex and Roche Molecular respectively. […]

U2OS and Hep3B cells = assay: HRE-dependent luciferase reporter assay after transient transfection of NODD/CODD plasmids; format: cell-based, human; details: normoxic conditions, 24 hours
From the text: Since normoxic HIFα degradation is saturable ^17 and depends on sub-regions within the ODD we tested whether peptides encoding the HIF-1α amino terminal ODD (NODD) and carboxy terminal ODD (CODD) ^21 could affect HIF activity as measured by hypoxia response element (HRE)-dependent reporter gene expression. Briefly, Degradation is prevented by the NODD and CODD polypeptides competing for prolyl hydroxylation and/or VHL binding, thereby blocking subsequent ubiquitination. We constructed plasmids encoding NODD (HIF-1-α aa 343-417) or CODD (HIF-1-α aa 549-582) linked to nuclear localisation sequences and a c-myc epitope tag. These plasmids were transiently co-transfected into U2OS and Hep3B cells with an HRE-dependent luciferase reporter plasmid. […]
For reporter gene assays DNA fragments encoding HIF-1α amino acids 343-417, 380-417, 390-417, 390-410, 343-400, 530-95, 530-82, 549-82, 556-74 and 530-62 were generated by PCR using oligonucleotides containing 5′ SacII or 3′ AscI sites and inserted into a pCMV/myc/nuc (Invitrogen) derivative bearing these sites in frame with the NLS and epitope tag. […] To generate tet-operator dependent plasmids the open reading frames from the aa343-417 and aa549-82 constructs were subcloned into pUHD 10 ^34. […]

VHL E3 ubiquitin ligase = target: T1, VHL E3 ubiquitin ligase (Homo sapiens, UniProt P40337); assay: VHL E3 interaction assay with 35S-labelled tat-ODD IVTT products; format: binding; details: after modification by cell extracts
T1 construct: expressed in transfected cells; host or cells: 786-0 cells stably transfected with pcDNA3 VHL.HA (whole extract, anti-HA immunoprecipitation)
T1 sequence (P40337 whole entry): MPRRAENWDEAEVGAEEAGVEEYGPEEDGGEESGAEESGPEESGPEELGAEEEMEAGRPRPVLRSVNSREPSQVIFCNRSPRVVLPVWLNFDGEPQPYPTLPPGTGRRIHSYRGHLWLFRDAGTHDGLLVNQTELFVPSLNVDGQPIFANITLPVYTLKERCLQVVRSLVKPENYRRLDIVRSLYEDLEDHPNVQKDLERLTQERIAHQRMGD
T1 sequence (Q15370 whole entry partner): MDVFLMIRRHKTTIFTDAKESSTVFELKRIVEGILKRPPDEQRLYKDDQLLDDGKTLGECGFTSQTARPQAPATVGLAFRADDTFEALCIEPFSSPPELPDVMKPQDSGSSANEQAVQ
T1 sequence (Q15369 whole entry partner): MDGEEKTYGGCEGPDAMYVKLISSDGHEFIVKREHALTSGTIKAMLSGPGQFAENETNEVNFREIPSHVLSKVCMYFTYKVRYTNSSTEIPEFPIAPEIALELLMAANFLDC
T1 sequence (Q13617 whole entry partner): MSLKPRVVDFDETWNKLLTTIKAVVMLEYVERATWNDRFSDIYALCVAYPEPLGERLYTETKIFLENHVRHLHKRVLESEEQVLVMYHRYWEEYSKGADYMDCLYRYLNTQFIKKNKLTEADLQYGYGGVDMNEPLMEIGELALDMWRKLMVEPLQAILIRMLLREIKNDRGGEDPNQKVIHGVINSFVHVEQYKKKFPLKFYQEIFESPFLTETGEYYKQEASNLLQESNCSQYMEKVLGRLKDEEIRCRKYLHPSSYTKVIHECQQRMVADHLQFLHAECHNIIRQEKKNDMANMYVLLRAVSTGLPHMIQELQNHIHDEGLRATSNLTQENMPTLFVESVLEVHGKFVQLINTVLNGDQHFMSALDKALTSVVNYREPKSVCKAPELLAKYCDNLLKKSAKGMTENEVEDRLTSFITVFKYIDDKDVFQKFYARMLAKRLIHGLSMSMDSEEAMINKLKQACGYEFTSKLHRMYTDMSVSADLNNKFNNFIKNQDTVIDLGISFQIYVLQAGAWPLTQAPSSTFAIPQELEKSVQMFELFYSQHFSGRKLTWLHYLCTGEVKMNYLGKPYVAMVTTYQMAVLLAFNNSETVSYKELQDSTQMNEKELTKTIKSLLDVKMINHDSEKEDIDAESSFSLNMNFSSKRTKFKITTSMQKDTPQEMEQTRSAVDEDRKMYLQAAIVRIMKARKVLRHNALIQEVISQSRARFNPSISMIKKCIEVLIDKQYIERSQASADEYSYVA
T1 sequence (P62877 whole entry partner): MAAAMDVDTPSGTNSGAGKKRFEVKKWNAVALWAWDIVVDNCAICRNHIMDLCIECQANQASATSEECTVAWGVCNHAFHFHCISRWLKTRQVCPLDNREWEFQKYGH
From the text: Concordant with the ubiquitination assays discussed above NODD (HIF-1α 343-417) and CODD (HIF-1α 549-582) polypeptides, but not their corresponding proline mutants (HIF-1α 343-417/P402A and HIF-1α 549-582/P564G), bound to VHL E3 ubiquitin ligase after modification by cell extracts. The ^35S-methionine labelled recombinant polypeptides therefore interacted with VHL, supporting the results of the ubiquitination experiments discussed above. The interaction was enhanced by the presence of cell extracts which promote hydroxylation of the prolines at positions 402 and 564 ^19. In contrast, no binding occurred using peptides in which prolines were mutated.
For VHL E3 interaction assays ^35S-methionine labelled HIF-1a substrates were prepared by transcription/translation using TnT7 rabbit reticulocyte lysate (Promega). 100 μM DFO was added to the reaction to suppress prolyl hydroxylase activity of the reticulocyte lysate. Substrate modification was achieved by incubation of HIF-1α translate with RCC4 cell lysate in the presence of ferrous chloride (100 μM). Interaction with VHL E3 was analysed as described previously ^21.

[1] = tested on: human microvascular endothelial cells (HMEC-1); assay: Tubule formation assay, co-culture with HMEC-1; format: cell-based; details: intermittent doxycycline over 5 days
From the text: Artificial activation of the HIF signalling pathway using the methods of the invention should induce angiogenesis and will therefore be of potential therapeutic use in ischaemic disease. We tested the effect of polypeptide induced HIF stabilisation in an in vitro angiogenesis assay, co-culturing human microvascular endothelial cells (HMEC-1) with empty vector transfected or doxCODD cells. In view of the possibility of sustained activation inducing a negative feedback loop we opted to test the effects of intermittent induction. […] As a positive control epidermal Growth Factor (EGF; 5 ng/ml), which is known to induce growth of HMEC-1, was used. To extend these observations into an in vivo model we assayed the effects of injecting tat-fusion proteins into polyurethane sponges implanted subcutaneously in mice. Intermittent injections on days 1, 2, 4 and 5 led to a markedly accelerated angiogenic response assayed on day 7 when compared with sponges injected with proline mutant fusion proteins, excluding a contribution from the tat component ^28. […]
doxCODD or empty vector cells were co-cultivated with human microvascular endothelial cells (HMEC-1) in a ratio of 2:1 in DMEM 10% doxycycline free FCS (Clontech), 2 mM Glutamine and 100 U/ml Penicillin/100 μg/ml Streptomycin. […] Endothelial cells were detected using antibodies to von Willebrand factor (vWF) (Dako).

Substance: CODD: HIF-1α carboxy terminal ODD polypeptide (aa 549-582) with nuclear localisation sequences and c-myc tag, plasmid expressed
- 3H-glucose uptake (U2OS cells; 24 hours induction with doxycycline, versus empty vector cells): enhanced uptake of ^3H-glucose
- ubiquitination of exogenous 35S-methionine labelled HIF-1α (U2OS cells; cell extracts versus empty vector extracts): markedly reduced
- Maximal HIF-1α level relative to hypoxic or DFO treatment (U2OS cells; doxycycline 0.2-3.2 μg/ml, peaking after 48 hours): about 70%
- Glut-1 mRNA (ribonuclease protection) (U2OS cells; doxycycline repeatedly added, 0-8 days): increased for the first 4 days and then declined
- CAIX mRNA (ribonuclease protection) (U2OS cells; doxycycline, 24 and 48 hours): markedly induced mRNA levels
- HRE-dependent relative luciferase activity (U2OS and Hep3B cells): increased relative luciferase activity
- binding to VHL E3 ubiquitin ligase (VHL E3 ubiquitin ligase): bound
- tubule formation of co-cultured endothelial cells [1]: assembly of co-cultured endothelial cells into complex tubular structures
